Entries after “also recorded” stand apart in the source; their conditions may differ.
Columns and labels:
[1] = system: central DA-receptor (pre- and/or postsynaptic); test: Rat-brain in-vivo tyrosine hydroxylation: Dopa accumulation after NSD 1015 in reserpine-pretreated rats; conditions: for Dopa-accumulation; ED50, Limbic / Dopa-accumulation; ED50, Striatum: half-maximal decrease in Dopa level
Procedure: The compounds under evaluation were tested biochemically for central DA-receptor (pre- and/or postsynaptic) stimulating activity. The concept of this biochemical screening method is that a DA-receptor agonist will stimulate the receptor and through regulatory feedback systems effect a decline in tyrosine hydroxylase activity and thus a subsequent reduction in the synthesis rate for DA in the presynaptic neuron. Dopa formation, as determined after in-vivo inhibition of the aromatic L-amino acid decarboxylase with NSD 1015 (3-hydroxybenzyl-hydrazine hydrochloride), is taken as an indirect measure of DA synthesis rate.
Rats (150-300 g) pretreated with reserpine were given the compounds under evaluation. Gross behavioural observations (changes in motility, stereotypies etc.) were made in order to evaluate possible postsynaptic dopamine receptor activity. subsequent administration of NSD 1015, decapitation, brain dissection [corpora striata, limbic fore-brain and rest of the hemispheral parts (cortex)]homogenization, centrifugation, ion-exchange chromatography and spectro-fluorimetric measurements (all as described in detail by Wikstrom et al., in J. Med. Chem. 21, 864-867, 1978 and references cited therein), gave the actual Dopa levels.
Several doses (n=4-6) were tested in order to obtain dose-response curves for each compound and brain area. The dose of a compound producing a half-maximal decrease in the Dopa level in the rat brain part was then estimated. These values (ED50) are presented in Table I. (Simultaneous determination of the 5-HTP levels was also performed utilizing the same paradigm.)
^b Rats pretreated with reserpine (10 mg/kg i.p.; 18 h) were given th
compounds under evaluation. Fortyfive minutes later they were injected
with NSD 1015 (100 mg/kg i.p.) and after a further 30 min they were
decapitated, the brains rapidly dissected and taken for determination of
the Dopa and 5HTP levels in different areas of the brain. The dose of a
compound producing a halfmaximal decrease (ED50) in the Dopa level i
the rat brain part was then estimated from doseresponse curves comprising
4-6 dose levels. (For further details see the text and references).

[2] = system: postsynaptic DA receptors; test: Antagonism of the reserpine plus α-methyl-para-tyrosine-induced immobility (neuroleptic syndrome) in rats; motor activity; conditions: for Motor activity: 10 mg/kg s.c., reserpine 10 mg/kg + α-methyl-para-tyrosine 250 mg/kg i.p., means ± s.e.m.; for motor response / postsynaptic DA-receptor stimulatory effects: comparative study, Table II, s.c.; for antagonism of the reserpine-induced syndrome / behaviour elicited / postsynaptic DA-receptor stimulation: reserpine and α-methyl-para-tyrosine pretreated rats
[3] = system: brain 5-HT synthesis rate; test: Formation of 5-hydroxytryptophan in rat brain regions (non-pretreated rats, NSD 1015); format: in vivo; parameters: formation of 5-hydroxytryptophan, Limbic forebrain / formation of 5-hydroxytryptophan, Striatum / formation of 5-hydroxytryptophan, Diencephalon / formation of 5-hydroxytryptophan, Brain-stem: unit not given here; conditions: for formation of 5-hydroxytryptophan, Brain-stem / formation of 5-hydroxytryptophan, Diencephalon / formation of 5-hydroxytryptophan, Hemispheral (cortical) parts / formation of 5-hydroxytryptophan, Limbic forebrain / formation of 5-hydroxytryptophan, Striatum: mean ± sem
Procedure: (§1) Immediately thereafter the animals were removed from the boxes. Part of
(§2) the animals were injected with NSD 1015 (100 mg/kg i.p.) and after a
(§3) further 30 min they were killed, the brains rapidly dissected and taken
(§4) for determination of the Dopa and 5HTP levels in different areas of the […]

DA autoreceptors = test: Spontaneous locomotor activity in non-pretreated rats; format: in vivo, rat
Procedure: Untreated animals exposed to a new environment display an initial high motor activity which then gradually declines over a period of time. Administration of DA-receptor agonists (e.g. apomorphine) in doses where preferential autoreceptor stimulation is likely to occur, causes a depression of the spontaneous motility mentioned above, considered to be due to the DA autoreceptor-medicated attenuation of central DA transmission.
Rats (150-300 g) were injected subcutaneously with compound 2,5-OH-DPAT or apomorphine and after 5 minutes they were individually placed in motility boxes ("M/P 40 Fc Electronic Motility Meter". Motron Products, Stockholm) and the motor activity (0-30 min) was quantified. […] These findings are in congruence with the results obtained with the selective DA-autoreceptor agonist 3-PPP [S. Hjorth t al., Life Sciences, 28, 1225 (1981)] but in sharp contrast to the results obtained with 5-OH-DPAT and apomorphine (Table III).
Non-pretreated rats were given compound -2 (0.0625-16.0 mg/kg),
5OH--2-(di-n-propylamino) tetralin (5OH--DPAT; 0.0125-0.05 mg/kg,
apomorphine (0.1-1.0 mg/kg) or saline subcutaneously. Five minutes later
they were placed individually into motility meters and the locomotor

brain DA synthesis rate = test: Formation of Dopa in rat brain regions (non-pretreated rats, NSD 1015); format: in vivo; parameters: formation of Dopa, Limbic forebrain / formation of Dopa, Striatum / formation of Dopa, Diencephalon / formation of Dopa, Brain-stem: unit not given here; conditions: for formation of Dopa, Brain-stem / formation of Dopa, Diencephalon / formation of Dopa, Hemispheral (cortical) parts / formation of Dopa, Limbic forebrain / formation of Dopa, Striatum: mean ± sem
Procedure: as §1, §2, §3, §4

[4] = limbic forebrain, reserpine-pretreated rats, s.c.
[5] = striatum, reserpine-pretreated rats, s.c.

## CCCN(CCC)[C@@H]1CCc2c(O)cccc2[C@H]1C (relative stereo) [trans-1-CH35-OHDPAT, trans-1-methyl-5-hydroxy-2-(di-n-propylamino)tetralin]
[1]; [4]
  Dopa-accumulation; ED50, Limbic: 0.66 μmol/kg s.c.
[1]; [5]
  Dopa-accumulation; ED50, Striatum: 0.73 μmol/kg s.c.
[2]
  Motor activity: 406 ± 47 counts 0-60 min
  motor response / postsynaptic DA-receptor stimulatory effects: strong central postsynaptic DA-receptor stimulatory effects
  antagonism of the reserpine-induced syndrome / behaviour elicited: pronounced stereotyped and hyperactive behaviour
  postsynaptic DA-receptor stimulation: efficient postsynaptic DA-receptor stimulants

## Br.CCCN(CCC)[C@H]1CCc2c(O)cccc2[C@H]1C (relative stereo) [Compound 2, cis-5-Hydroxy-1-methyl-2-(di-n-propylamino) tetralin hydrobromid]
[3]; 0.0625 mg/kg s.c.
  formation of 5-hydroxytryptophan, Brain-stem: 98 ± 4
  formation of 5-hydroxytryptophan, Diencephalon: 196 ± 8
  formation of 5-hydroxytryptophan, Hemispheral (cortical) parts: 40 ± 3
  formation of 5-hydroxytryptophan, Limbic forebrain: 314 ± 15
  formation of 5-hydroxytryptophan, Striatum: 458 ± 17
[3]; 0.25 mg/kg s.c.
  formation of 5-hydroxytryptophan, Brain-stem: 96 ± 11
  formation of 5-hydroxytryptophan, Diencephalon: 170 ± 9
  formation of 5-hydroxytryptophan, Hemispheral (cortical) parts: 46 ± 2
  formation of 5-hydroxytryptophan, Limbic forebrain: 305 ± 14
  formation of 5-hydroxytryptophan, Striatum: 448 ± 26
[3]; 1.0 mg/kg s.c.
  formation of 5-hydroxytryptophan, Brain-stem: 96 ± 7
  formation of 5-hydroxytryptophan, Diencephalon: 170 ± 11
  formation of 5-hydroxytryptophan, Hemispheral (cortical) parts: 43 ± 3
  formation of 5-hydroxytryptophan, Limbic forebrain: 291 ± 9
  formation of 5-hydroxytryptophan, Striatum: 420 ± 30
[3]; 4.0 mg/kg s.c.
  formation of 5-hydroxytryptophan, Brain-stem: 111 ± 8
  formation of 5-hydroxytryptophan, Diencephalon: 176 ± 10
  formation of 5-hydroxytryptophan, Hemispheral (cortical) parts: 47 ± 2
  formation of 5-hydroxytryptophan, Limbic forebrain: 267 ± 6
  formation of 5-hydroxytryptophan, Striatum: 479 ± 9
[3]; 16.0 mg/kg s.c.
  formation of 5-hydroxytryptophan, Brain-stem: 118 ± 4
  formation of 5-hydroxytryptophan, Diencephalon: 214 ± 13
  formation of 5-hydroxytryptophan, Hemispheral (cortical) parts: 48 ± 3
  formation of 5-hydroxytryptophan, Limbic forebrain: 272 ± 20
  formation of 5-hydroxytryptophan, Striatum: 478 ± 10
[3]; non-pretreated rats, s.c.
  effect on brain 5-HT synthesis rate, in words: without any concomitant change in brain 5-HT synthesis rate
[1]; [4]
  Dopa-accumulation; ED50, Limbic: 0.67 μmol/kg s.c.
[1]; [5]
  Dopa-accumulation; ED50, Striatum: 0.80 μmol/kg s.c.
[1]; versus 3-PPP, Dopa accumulation
  potency relative to 3-PPP (times more potent): approximately 5 times
[1]; versus trans-1-CH3-5-OH-DPAT, 5-OH-DPAT, apomorphine, Dopa accumulation
  comparative potency, in words: equipotent to trans-1-CH3 -5-OH-DPAT; also recorded: less potent than 5-OH-DPAT; also recorded: of the same order of potency as apomorphine
DA autoreceptors; 0.0625 mg/kg s.c., non-pretreated rats
  Locomotor activity: 146 ± 4 counts 0.30 min
DA autoreceptors; 0.25 mg/kg s.c., non-pretreated rats
  Locomotor activity: 117 ± 11 counts 0.30 min
DA autoreceptors; 1.0 mg/kg s.c., non-pretreated rats
  Locomotor activity: 82 ± 8 counts 0.30 min
DA autoreceptors; 4.0 mg/kg s.c., non-pretreated rats
  Locomotor activity: 62 ± 5 counts 0.30 min
DA autoreceptors; 16.0 mg/kg s.c., non-pretreated rats
  Locomotor activity: 63 ± 9 counts 0.30 min
DA autoreceptors; at about 4 mg/kg s.c., 0-30 min
  maximal decrease of the initial high motor activity from control values: 70%
DA autoreceptors; non-pretreated rats, s.c.
  effect on locomotor activity, in words: clear and significant dose-dependent decrease of the initial high motor activity; also recorded: No locomotor stimulation is ever seen
DA autoreceptors; s.c., 0-30 min
  dose at which the maximal effect on motor activity is attained: about 4 mg/kg
Brain DA synthesis rate; 0.0625 mg/kg s.c.
  formation of Dopa, Brain-stem: 177 ± 10
  formation of Dopa, Diencephalon: 148 ± 5
  formation of Dopa, Hemispheral (cortical) parts: 66 ± 2
  formation of Dopa, Limbic forebrain: 114 ± 6
  formation of Dopa, Striatum: 65 ± 4
Brain DA synthesis rate; 0.25 mg/kg s.c.
  formation of Dopa, Brain-stem: 170 ± 6
  formation of Dopa, Diencephalon: 144 ± 2
  formation of Dopa, Hemispheral (cortical) parts: 63 ± 2
  formation of Dopa, Limbic forebrain: 116 ± 3
  formation of Dopa, Striatum: 71 ± 5
Brain DA synthesis rate; 1.0 mg/kg s.c.
  formation of Dopa, Brain-stem: 167 ± 8
  formation of Dopa, Diencephalon: 134 ± 7
  formation of Dopa, Hemispheral (cortical) parts: 60 ± 1
  formation of Dopa, Limbic forebrain: 107 ± 5
  formation of Dopa, Striatum: 75 ± 6
Brain DA synthesis rate; 4.0 mg/kg s.c.
  formation of Dopa, Brain-stem: 170 ± 5
  formation of Dopa, Diencephalon: 137 ± 3
  formation of Dopa, Hemispheral (cortical) parts: 59 ± 2
  formation of Dopa, Limbic forebrain: 113 ± 3
  formation of Dopa, Striatum: 72 ± 4
Brain DA synthesis rate; 16.0 mg/kg s.c.
  formation of Dopa, Brain-stem: 170 ± 8
  formation of Dopa, Diencephalon: 137 ± 5
  formation of Dopa, Hemispheral (cortical) parts: 59 ± 2
  formation of Dopa, Limbic forebrain: 108 ± 5
  formation of Dopa, Striatum: 73 ± 4
Brain DA synthesis rate; non-pretreated rats, s.c.
  effect on brain DA synthesis rate, in words: significant decrease in rate brain DA synthesis rate; also recorded: marked difference in response between the limbic forebrain and the striatal structures
[2]
  Motor activity: 52 ± 5 counts 0-60 min
  motor response / postsynaptic DA-receptor stimulatory effects: failed to elicit a motor response that differed more than slightly from control values
  antagonism of the reserpine-induced syndrome / behaviour elicited: inability of compound 2 to antagonize the reserpine-induced syndrome
  postsynaptic DA-receptor stimulation: compound 2 is not

## CCCNC1CCc2c(O)cccc2C1(C)C (centres unmarked) [1,1-di-CH35-OHPAT, 1,1di-CH35-OH2-(n-propylamino)tetralin]
[1]; [4]
  Dopa-accumulation; ED50, Limbic (class symbol): I (Inactive. ED50 > 45 μmol/kg.)
[1]; reserpine-pretreated rats, inactive even at 45 μmol/kg
  biochemical activity (Dopa accumulation), in words: completely inactive
[1]; [5]
  Dopa-accumulation; ED50, Striatum (class symbol): I (Inactive. ED50 > 45 μmol/kg.)

— patent US4876284A, “1-alkyl-2-aminotetralin derivatives” (Per Arvid Emil Carlsson, priority 1981, dated 1989)
